Results from patent publication US20020025943A1, “Nucleoside analog compositions and uses thereof” (priority 1997, published 2002).
pEC50, pIC50: −log10 of the molar value. Where two headings read alike, the source gives them in different places.

What was measured:
[1] = tested on: HIV-1 (RF strain); assay: NCI AIDS antiviral screen: inhibition of HIV-1 cytopathicity in T4 lymphocytes (CEM line), XTT viability; format: cell-based; settings: for pEC50: NCI screen, mean value
Protocol: Three DHA-ddC (compounds 8, 9, and 10 above) and one DHA-AZT conjugate (the compound described above) were sent to the National Cancer Institute's AIDS antiviral screen to test their anti-HIV activity in vitro. The compounds were provided as solutions in ethanol. The vials containing the conjugates were sealed under argon to prevent oxygen from possibly degrading the conjugates. Instructions were provided to store the vials containing the conjugates at 4° C. and to open the vials immediately before use.
The primary screen used by the NCI for anti-HIV activity utilizes the cytopathicity of HIV-1 for human T4 lymphocytes and the inhibition of such killing by drugs that inhibit viral cytotoxicity. The experimental protocols are described by Weislow et al., (J. Natl. Cancer Inst. 81:577-586, 1989) and Bader (, whose contents are incorporated herein by reference. Briefly, the compounds are diluted first in DMSO or other appropriate solvent, then diluted 1:100 in cell culture medium before preparing serial half log10 dilutions. T4 lymphocytes (CEM line) are added, and after a brief interval HIV-1 (RF strain) is added. Appropriate controls (infected and uninfected cells without compound, and non-infected cells with the compound) are included in the plate format. The cultures are incubated at 37° C. for six days during which time the cells proliferate, the virus reproduces and kills the cells. Cell viability is measured by the ability of cells to convert a colorless tetrazolium salt (XTT) to a highly colored soluble formazan. The intensity of the color is read in a spectrophotometer using an automated system. The wells are also examined microscopically to confirm the protective activity of the compounds.

[2] = tested on: HIV in human T4 cells; assay: Anti-HIV experiments performed at the Southern Research Institute (SRI); format: cell-based; settings: for Fold Increase in Potency: SRI, Control/Expt, relative to the parent drug (AZT or ddC)
Excerpt: The results of the experiments performed at SRI are shown in Table 2; the results were expressed in terms of inhibitory concentration
These in vitro data in human cells establish that conjugating ddC drugs to DHA achieves higher activity (between >5400 fold to 55 to 13 fold) against HIV in human T4 cells. In particular, conjugation of DHA to ddC drugs at the pyrimidine ring of ddC rather than the pentose ring is preferred based upon the unexpected results of the foregoing assays.

[3] = Human immunodeficiency virus 1, Lymphocyte
[4] = Human immunodeficiency virus 1, SRI experiments, read-out: Inhibitory Concentration
[5] = SRI experiments, read-out: Inhibitory Concentration

Compound	pEC50 [1, 3]	pIC50 [2, 4]	Fold Increase in Potency [2]	pIC50 [2, 5]	other results
Cc1cn([C@H]2CC(N=[N+]=[N-])[C@@H](CO)O2)c(=O)[nH]c1=O (stereo partly drawn) [AZT, reference compound]	7.75	7.00	1.0 fold		
CC/C=C\C/C=C\C/C=C\C/C=C\C/C=C\C/C=C\CCC(=O)OC[C@H]1O[C@@H](n2cc(C)c(=O)[nH]c2=O)C[C@@H]1N=[N+]=[N-] [DHA-AZT]			1.7 fold	7.22	pEC50 [1]: 7.58; anti-HIV activity of the conjugate relative to that of the parent drug, AZT ([1]; NCI studies): did not alter the anti-HIV activity; activity relative to AZT alone ([2]; same assays as the DHA-ddC conjugates): not increased
CC/C=C\C/C=C\C/C=C\C/C=C\C/C=C\C/C=C\CCC(=O)Nc1ccn([C@H]2CC[C@@H](CO)O2)c(=O)n1 [DHA-ddC 8]		8.16	54.8 fold		Fold Increase in Potency over ddC ([1]; mean EC50 for ddC (moles/L) divided by EC50 of the conjugate (moles/L)): >3807 fold
CC/C=C\C/C=C\C/C=C\C/C=C\C/C=C\C/C=C\CCC(=O)Nc1ccn([C@H]2CC[C@@H](COC(=O)CC/C=C\C/C=C\C/C=C\C/C=C\C/C=C\C/C=C\CC)O2)c(=O)n1 [DHA-ddC 9]		7.52	12.7 fold		
CC/C=C\C/C=C\C/C=C\C/C=C\C/C=C\C/C=C\CCC(=O)OC[C@@H]1CC[C@H](n2ccc(N)nc2=O)O1 [DHA-ddC 10]			38 fold	8.00	
Nc1ccn([C@H]2CC[C@@H](CO)O2)c(=O)n1 [ddC, 2′,3′-dideoxycytidine, reference compound]	6.94		1.0 fold		pIC50 ([2]; Human immunodeficiency virus 1, read-out: Inhibitory Concentration): 6.52
